From US20120270929A1, “MODULATION OF TTC39 EXPRESSION TO INCREASE HDL” (ISIS Pharmaceuticals, Inc., priority 2009, published 2012)
Oligonucleotides are written 5' to 3', each unit as a sugar letter and its base; * is a phosphorothioate linkage, no mark a phosphodiester; rarer units and linkages stand in square brackets, end groups in braces. Plain capitals give the bases only. e = 2'-O-(2-methoxyethyl) (MOE); [5mC] = 5-methylcytosine; d = 2'-deoxy (DNA)

Assays:
murine TTC39C mRNA [1] = test: Antisense inhibition of mouse TTC39C in mouse primary hepatocytes, single dose; assay type: cell-based; conditions: 8,000 nM antisense oligonucleotide, electroporation, approximately 24 hours, TTC39C mRNA by real-time PCR (RTS3266), relative to untreated control cells
Experimental: Antisense oligonucleotides were designed targeting a TTC39C nucleic acid and were tested for their effects on TTC39C mRNA in vitro. Cultured mouse primary hepatocytes at a density of 30,000 cells per well were transfected by electroporation with 8,000 nM antisense oligonucleotide. After a treatment period of approximately 24 hours, RNA was isolated from the cells and TTC39C mRNA levels were measured by quantitative real-time PCR. Mouse primer probe set RTS3266 (forward sequence […], designated herein as SEQ ID NO: 140; reverse sequence […], designated herein as SEQ ID NO: 141; probe sequence […], designated herein as SEQ ID NO: 142). TTC39C mRNA levels were adjusted according to total RNA content, as measured by RIBOGREEN®. Results are presented as percent inhibition of TTC39C, relative to untreated control cells.
The chimeric antisense oligonucleotides targeting TTC39C were designed as 5-10-5 MOE gapmers. The gapmers are 20 nucleotides in length, wherein the central gap segment is comprised of ten 2′-deoxynucleotides and is flanked on both sides (in the 5′ and 3′ directions) by wings comprising five nucleotides each. Each nucleotide in the 5′ wing segment and each nucleotide in the 3′ wing segment has a 2′-MOE modification. The internucleoside linkages throughout each gapmer are phosphorothioate (P═S) linkages. All cytosine residues throughout each gapmer are 5-methylcytosines. “Mouse Target start site” indicates the 5′-most nucleotide to which the gapmer is targeted in the mouse gene sequence.

murine TTC39C mRNA [2] = test: Dose-dependent antisense inhibition of murine TTC39C in mouse primary hepatocytes; assay type: cell-based; conditions: electroporation, ~16 h; for IC50: mouse primary hepatocytes
Method in brief: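 Mouse primary hepatocytes (30,000/well) electroporated with antisense oligonucleotide at 500, 1,000, 2,000, 4,000 or 8,000 nM and harvested after about 16 h. TTC39C mRNA quantified by RT-qPCR (primer probe set RTS3266), normalised to RIBOGREEN total RNA; percent inhibition versus untreated cells.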

Row | Substance | % inhibition (murine TTC39C mRNA [1]) [%] | percent inhibition of TTC39C mRNA (murine TTC39C mRNA [2]; 500.0 nM) [%] | percent inhibition of TTC39C mRNA (murine TTC39C mRNA [2]; 1000.0 nM) [%] | percent inhibition of TTC39C mRNA (murine TTC39C mRNA [2]; 2000.0 nM) [%] | percent inhibition of TTC39C mRNA (murine TTC39C mRNA [2]; 4000.0 nM) [%] | percent inhibition of TTC39C mRNA (murine TTC39C mRNA [2]; 8000.0 nM) [%] | IC50 (murine TTC39C mRNA [2]) [nM]
1 | ISIS 474598: 5-10-5 MOE gapmer antisense oligonucleotide targeting murine TTC39C (antisense e[5mC]*e[5mC]*e[5mC]*eA*e[5mC]*d[5mC]*dT*dT*dT*dT*dA*dT*dG*dT*dA*eG*eG*e[5mC]*e[5mC]*eG) | 94 | 40 | 37 | 60 | 83 | 94 | 1100
2 | ISIS 474599: 5-10-5 MOE gapmer antisense oligonucleotide targeting murine TTC39C (antisense e[5mC]*eG*eT*eT*eG*dA*dT*dG*dT*d[5mC]*d[5mC]*dA*d[5mC]*dA*dT*eA*eG*e[5mC]*eA*e[5mC]) | 92 | 36 | 59 | 60 | 84 | 92 | 900
3 | ISIS 474600: 5-10-5 MOE gapmer antisense oligonucleotide targeting murine TTC39C (antisense e[5mC]*e[5mC]*eA*eA*eG*dG*dG*d[5mC]*dT*d[5mC]*dT*dT*d[5mC]*d[5mC]*dG*eT*e[5mC]*eA*eG*e[5mC]) | 90 | 47 | 57 | 66 | 86 | 89 | 600
4 | ISIS 474601: 5-10-5 MOE gapmer antisense oligonucleotide targeting murine TTC39C (antisense eG*eG*e[5mC]*e[5mC]*eA*dT*dA*dT*d[5mC]*d[5mC]*dA*dA*dA*dG*d[5mC]*eT*e[5mC]*eA*e[5mC]*eA) | 91 | 36 | 49 | 65 | 87 | 92 | 1000
5 | ISIS 474604: 5-10-5 MOE gapmer antisense oligonucleotide targeting murine TTC39C (antisense eT*eG*eT*e[5mC]*eA*d[5mC]*dT*dG*d[5mC]*d[5mC]*dG*dT*d[5mC]*d[5mC]*dA*eA*eA*eG*e[5mC]*eA) | 97 | 43 | 70 | 84 | 88 | 96 | 500
6 | ISIS 474607: 5-10-5 MOE gapmer antisense oligonucleotide targeting murine TTC39C (antisense eT*e[5mC]*eA*eA*eT*d[5mC]*dA*dT*dG*d[5mC]*dT*dG*d[5mC]*dA*d[5mC]*e[5mC]*eA*eG*e[5mC]*e[5mC]) | 98 | 40 | 65 | 85 | 92 | 94 | 500
7 | ISIS 474609: 5-10-5 MOE gapmer antisense oligonucleotide targeting murine TTC39C (antisense e[5mC]*eG*eT*eA*eG*dT*dA*dG*d[5mC]*dA*d[5mC]*dT*dG*dG*dG*eA*e[5mC]*e[5mC]*eA*e[5mC]) | 95 | 48 | 56 | 71 | 90 | 97 | 600
8 | ISIS 474610: 5-10-5 MOE gapmer antisense oligonucleotide targeting murine TTC39C (antisense eT*eT*eA*eA*eG*dA*dA*d[5mC]*dA*dA*dG*dT*dT*dG*dT*eG*e[5mC]*e[5mC]*e[5mC]*e[5mC]) | 90 | 10 | 28 | 38 | 65 | 71 | 2800
9 | ISIS 474613: 5-10-5 MOE gapmer antisense oligonucleotide targeting murine TTC39C (antisense eT*eG*e[5mC]*eT*eT*dT*dA*dA*dT*d[5mC]*d[5mC]*dA*dA*d[5mC]*dG*eA*e[5mC]*eA*eG*eA) | 90 | 30 | 33 | 43 | 65 | 74 | 2100
10 | ISIS 474615: 5-10-5 MOE gapmer antisense oligonucleotide targeting murine TTC39C (antisense eG*eT*eA*e[5mC]*eG*dA*dG*dT*dT*dA*d[5mC]*dT*d[5mC]*dT*dG*e[5mC]*e[5mC]*eG*eA*e[5mC]) | 96 | 33 | 43 | 82 | 92 | 98 | 900
11 | ISIS 474617: 5-10-5 MOE gapmer antisense oligonucleotide targeting murine TTC39C (antisense eA*eG*eT*eT*e[5mC]*d[5mC]*d[5mC]*dT*dT*dA*dG*dG*dG*dA*dG*eG*e[5mC]*e[5mC]*eA*eG) | 94 | 43 | 45 | 80 | 86 | 94 | 800
12 | ISIS 474629: 5-10-5 MOE gapmer antisense oligonucleotide targeting murine TTC39C (antisense eG*eA*eT*e[5mC]*eA*d[5mC]*dT*dG*d[5mC]*d[5mC]*dG*dT*d[5mC]*d[5mC]*dA*eA*eA*eG*e[5mC]*eA) | 93 | 16 | 28 | 42 | 48 | 66 | 3600
13 | ISIS 474662: 5-10-5 MOE gapmer antisense oligonucleotide targeting murine TTC39C (antisense eG*eG*eA*eT*eT*dT*d[5mC]*d[5mC]*dG*dG*dG*d[5mC]*dA*dT*d[5mC]*eA*eA*e[5mC]*e[5mC]*eT) | 95 | 28 | 35 | 65 | 88 | 94 | 1300
14 | ISIS 474666: 5-10-5 MOE gapmer antisense oligonucleotide targeting murine TTC39C (antisense e[5mC]*eA*eA*eT*e[5mC]*dA*dT*dG*d[5mC]*dT*dG*d[5mC]*dA*d[5mC]*d[5mC]*eA*eG*e[5mC]*e[5mC]*eT) | 95 | 35 | 54 | 79 | 92 | 95 | 800
